Results on two compounds are retold here after publication PMC6394990, “Detailed characterization of the solution kinetics and thermodynamics of biotin, biocytin and HABA binding to avidin and streptavidin” (PLoS ONE, 2019).

For series [1], the target named is T1, avidin (AV) (Gallus gallus, UniProt P02701).
T1 construct: purchased Calbiochem (La Jolla, CA)
The experiment in a line: Dissociation (displacement/replacement) of dye-labeled biotin complexes by unlabeled B7. It counts as binding. The conditions noted are these: AB1; probe 20 nM, AV 260 nM; unlabeled B7 2,000 nM; 20°C. How it is done: Biotin dissociation was determined using labelled biotin (BcO and BFl) displaced by unlabeled biotin using minimally occupied and fully occupied binding sites. In the minimally occupied measurements, SAV is prepared with less than one site on average occupied by labelled biotin (AB1), using 800 nM SAV and 40 nM of BcO or BFl. For saturated SAV-labelled biotin (AB4) complexes, equimolar binding sites and labelled ligand were prepared, 40 nM SAV and 40 nM of BcO or BFl. The AB1 complexes were challenged in displacement experiments with several concentrations of unlabeled B7 (1500 nM, 1750 nM, 2000 nM and 2500 nM) at 20 ± 0.1°C. […]
The rss measurements were collected using the Giblin-Parkhurst modification of the Wampler-Desa method as described previously. The fluorescence signal was detected in a model A-1010 Alphascan fluorimeter (Photon Technologies, Inc., Birmingham, NJ) equipped with an R928 PMT (Hamamatsu, Bridgewater, NJ). […] The fluorimeter G factor was determined using a film polarizer and analyzer with an excitation at 488 nm provided by a xenon arc lamp (model A1010, Photon Technologies Inc, Princeton, NJ). The dissociation reactions of dye-labeled B7 and protein complexes were monitored by fluorescence changes and were also collected in the fluorimeter described above. […]

Series [2] deals with T1, avidin (AV). The experiment in a line: Absorbance and fluorescence emission spectra, AV complex. It counts as physicochemical. The settings on record: for Maximum Absorbance / Maximum Emission: AV complex (AB1); for Abs (nm) / Emission (nm): complex with AV. The protocol:
The lifetimes (τ), steady state anisotropies (rss), time-resolved anisotropies (rt) and quantum yields (QY) of the complexes (at 20 ± 0.1°C and pH 8) were collected with a dye-labeled B7 probe concentration of 20–40 nM and 1040–2080 nM of either protein (AV or SAV) to ensure that only one binding site in the tetramer was filled with a ligand (AB1 filling model).
The QY values were obtained by using a reference fluorophore of known quantum yield and were calculated according to Parker and Rees, where the reference dye was fluorescein in 0.1N sodium hydroxide solution [46]. The emission fluorescence scans were collected from 480 nm to 700 nm with the excitation light set at 460 nm provided by the xenon arc lamp described above. These measurements were made on the AB1 complexes at high protein concentration.
Supplementary file pone.0204194.s001.docx: S1 Fig Absorbance spectra of dye-labeled B7 probes and respective complexes with AV and SAV. […] The spectra are normalized to the calculated molar absorptivies. […] The labeled probes and protein concentrations were 1 μM and 10 μM, respectively. (DOCX) Click here for additional data file.
Supplementary file pone.0204194.s002.docx: S2 Fig Fluorescence emission spectra of dye-labeled B7 and respective complexes with AV and SAV. […] The probe and protein concentrations were 20 nM and 1040 nM (AB1 filling model), respectively. (DOCX) Click here for additional data file.

The nature of series [3]: Time-resolved anisotropy, cone angle, unbound probe. The series is classed as physicochemical. The settings on record: unbound dye. The protocol:
The lifetimes were collected in a FluoTime100 fluorescence spectrometer (PicoQuant, GmbH, Berlin, Germany) with the excitation light source provided by a picosecond pulsed diode laser (PicoQuant, GmbH, Berlin, Germany) at 470 nm and 20 MHz. The emission was collected at 520 nm through a non-fluorescing 520 nm interference filter (Oriel Corp., Stratford, CT) followed by a liquid filter of 1cm path length containing 24 mM acetate buffered dichromate at pH 4, between the sample and detector to eliminate traces of excitation light. The fluorescence decays were fit by a nonlinear least-squares minimization based on the Marquardt algorithm embedded in the Fluofit software (PicoQuant GmbH). […] The PicoQuant G factor was calculated according to: G = ∫HV(t)dt/∫HH(t)dt, where HV(t) and HH(t) were the decays collected with the emission polarizer selecting vertical and horizontal E-vector passing orientations, respectively, and the excitation polarizer set at horizontally position. […]
In a simple model, the transition moment is assumed to wobble within a cone of semi-apical angle Ω [59], where the cone axis is normal to the surface of a sphere that corresponds to the macromolecule. The angle Ω is calculated from Eq 14.

“Also recorded” adds a separate entry of the source.

T1 sequence (P02701 25-152): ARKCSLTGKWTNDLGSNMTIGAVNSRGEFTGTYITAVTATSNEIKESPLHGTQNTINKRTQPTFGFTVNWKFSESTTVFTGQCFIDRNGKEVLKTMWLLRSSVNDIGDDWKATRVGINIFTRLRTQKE

As to `NC(CCCCNC(=O)CCCC[C@@H]1SC[C@@H]2NC(=O)N[C@@H]21)C(=O)NCCCCCNC(=O)c1ccc(-c2c3cc(F)c(=O)cc-3oc3cc(O)c(F)cc23)c(C(=O)O)c1` (stereo partly drawn) [BcO, Oregon green 488 Biocytin], the “koff displacement / koff replacement of AV complexes” value in series [1] is listed as “could not detect neither displacement nor replacement; also recorded: could not be detected”. Further, in series [2], the “Maximum Absorbance” value is listed as 497 nm, the “Maximum Emission” value is recorded as 524 nm, the “Abs (nm)” value amounted to 497 nm and the “Emission (nm)” value is listed as 524 nm. The compound also yielded a W in series [3] of 90 °.

Consider `O=C(CCCC[C@@H]1SC[C@@H]2NC(=O)N[C@@H]21)NCCNC(=O)c1ccc(-c2c3ccc(=O)cc-3oc3cc(O)ccc23)c(C(=O)O)c1` [BFl, Biotin-4-fluorescein], for which the “koff displacement / koff replacement of AV complexes” value in series [1] is “could not detect neither displacement nor replacement; also recorded: could not be detected”. Besides, in series [2], the “Maximum Absorbance” value worked out at 498 nm, the “Maximum Emission” value amounted to 528 nm, the “Abs (nm)” value was found to be 498 nm and the “Emission (nm)” value is listed as 528 nm. For the same compound, the W in series [3] is 90 °.
